Where two headings read alike, the source gives them in different places.
Experiments:
[1] = test system: DI318 CSCs; assay: 7-day CTG viability assay (GI50, cross-titrations, irradiation) in DI318; assay type: cell-based; conditions: Homo sapiens
Method: For GI50 determination, compounds were stamped in technical triplicate, while for synergy cross-titrations dose-response matrices were prepared in technical duplicate. Different CSC lines, grown in suspension as spheroids, were split with Accutase and seeded directly on top of the prestamped compounds (50 μL of NBMc and 700 cells/well). The outer 4 rows (A,B and O,P row IDs) and 4 columns (1,2 and 23,24 column IDs) were filled with 80 μL of PBS to minimize evaporation. Cells were incubated with compounds for 7 days at 37°C/5% CO2 prior to the addition of 25 μL/well Cell-Titer Glo (Promega) and luminescence quantification on a Revvity EnVision plate reader. […] For the cross-titrations of 2 compounds, synergy scores were calculated using the MuSyC webserver ([79]). […]
antagonist (p53 activator) RG7112 following either 0 Gy or 2 Gy irradiation. Mean values are presented from a single biological replicate conducted in technical triplicate. Follow- […]
Cell viability was quantified as described in the Materials and Methods four days post-irradiation (seven days total). The

[2] = Brain homogenate binding; assay type: in vitro ADME; conditions: human brain homogenate; read-out: BHB %fu (h)
Method: both the protein side and buffer side of the membrane after incubation and the parent compound was quantified. Brain homogenate binding was performed similarly as above using human brain homogenate, equilibrium dialysis, and LC-MS/MS methods. Fraction unbound is calculated by dividing the concentration of the buffer side by the concentration of the matrix side (plasma or brain). […]

[3] = test system: WIN-site dependent transcripts; assay: Bulk RNA-seq in L0 and DI318 CSCs; assay type: cell-based, human; conditions: for GSEA NES against MV4:11 C16-regulated gene set: 72 hours
Method: Bulk RNA-seq was performed at MedGenome Inc. using the Illumina Stranded mRNA Library Prep Kit and sequencing at 20M paired-end read-depth on a NovaSeq 6000 (PE100). The raw bulk RNA-seq paired end (R1-R2, 2 × 100 bp) sequencing fastq data was first subjected to the quality check analysis using FastQC (v0.11.9). […] Further, quality filtered reads were subjected to the alignment employing Rsubread (v2.16.1) align function with human genome reference build GRCh38 ([90], [91]). The mapped binary alignment map (BAM) files were indexed using samtools (v1.16.1) ([92]), and gene-wise read counts were summarized applying featureCounts function from Rsubread, where inbuilt hg38 annotation was used and duplicated reads were ignored. Furthermore, gene symbols were obtained using org.Hs.eg.db (v3.15.0) annotation package operating on ENTREZIDs from count table. Respectively, edgeR (v3.38.4) and limma-voom (v3.52.4) packages were employed to accomplish differential transcriptional regulation analysis ([93]–[95]). Briefly, constructed DGEList object (DGEList function), design matrix (model.design), and contrast matrix (makeContrasts) was defined, filtered low counts (filterByExpr), and trimmed mean of M-values (TMM) normalization (calcNormFactors) was done. Later, log2 counts per million reads (logCPM) transformation, model fitting and differential expression analysis was performed using limma-voom (voomWithQualityWeights, lmFit, contrasts.fit), empirical Bayes moderated t-statistics (eBayes), and TREAT method (treat, decideTests, topTreat) considering log fold-change (logFC) (0.5) threshold. Genes with |log2FC| > 0.5 and FDR adjusted P value cutoff (≤0.01) were considered as differentially expressed genes (DEGs). Gene ontology (GO) and pathway enrichment analysis was accomplished implementing ShinyGO (v0.77) ([96]). DEGs volcano plots were depicted utilizing EnhancedVolcano (v1.16.0) package.

[4] = biological target: WDR5 (Homo sapiens, UniProt P61964); assay: WDR5 TR-FRET binding assay (displacement of labeled WIN-site peptide); parameters: human WDR5 residues Ser22-Cys334 were codon optimized for E. coli; made in house; host or cells: E. coli T7 Express lysY/Iq (New England Biolabs), pET27 plasmid
Method: Recombinant human WDR5 was cloned, expressed, and purified as previously described ([37]). Briefly, human WDR5 residues Ser22-Cys334 were codon optimized for E. coli and cloned into a pET27 plasmid downstream of a SUMO-protease cleavable NT-His6-SUMO fusion. […] Induced cultures were pelleted; resuspended in 1X PBS pH 7.4, 300 mM NaCl, 20 mM imidazole, 5 mM β-Me, and 10% glycerol; and lysed via sonication. […] His-SUMO-WDR5 used in the TR-FRET assay was further purified via size exclusion chromatography using 1X PBS pH 7.4, 300 mM NaCl, 5 mM β-Me running buffer, concentrated to 1–2 mg/mL, aliquoted, and froze at –80°C for storage. Tag free WDR5 used for crystallography was dialyzed overnight with SUMO protease and passed over an NiNTA column to remove the His6-SUMO tag. Tag free WDR5 was further purified via size exclusion chromatography using 20 mM HEPES pH 7.0, 250 mM NaCl, and 5 mM DTT; concentrated to 10 mg/mL; aliquoted; and frozen at –80°C for storage.
Inhibitor Ki values were measured using a previously published competitive TR-FRET assay ([37]). […] The reported Ki values were calculated from at least 3 biological replicates completed in technical quadruplicate.

[5] = Microsomal intrinsic clearance, rat; assay type: in vitro ADME; conditions: for CLint scaled at 1 µM: pooled liver microsomes, rat microsomes; for Pred CLhep (r): scaled predicted hepatic clearance, rat
Method: SUPPLEMENTAL DMPK METHODS
All in vitro DMPK screening assays were performed at Q2 Solutions, Inc. (Indianapolis,
IN, USA). Microsomal Intrinsic Clearance: Test compounds (1 µM) were incubated
with 1 mg/mL of pooled liver microsomes in phosphate buffer at 37 °C. Samples were
taken at 0, 5, 10, 15, 30 and 45 min and analyzed by LC-MS. Testosterone was used as
the positive control. Two replicates were obtained and average CLint values are reported. […]

[6] = Plasma protein binding (equilibrium dialysis), rat; assay type: in vitro ADME; conditions: read-out: PPB % fu (r)
Method: both the protein side and buffer side of the membrane after incubation and the parent
compound was quantified. […]

[7] = DI318 + RAD (2 Gy), read-out: log(GI50) (converted)
[8] = […], DI318, 7-day CTG, pGI50 = −log10[GI50(M)], read-out: pGI50 (converted)

| Compound | GI50 [1, 7] [M] | GI50 [1, 8] [M] | fraction unbound at […] [2] | C16 DEGs also downregulated by C3TD078 ([3]; DI318, 200 nM, 72 hours (118/150)) [%] | C16 DEGs also downregulated by C3TD078 ([3]; L0, 200 nM, 72 hours (91/102)) [%] | Ki [4] [nM] | CLint scaled at 1 µM [5] [mL/min/kg] | Pred CLhep (r) [5] [mL/min/kg] | fraction unbound at […] [6] | GI50 ([1]; DI318, 0 Gy, read-out: log(GI50) (converted)) [M] | GSEA NES against MV4:11 C16-regulated gene set ([3]; DI318, 200 nM) | GSEA NES against MV4:11 C16-regulated gene set ([3]; L0, 200 nM) |
| --- | --- | --- | --- | --- | --- | --- | --- | --- | --- | --- | --- | --- |
| COc1cc(Cn2nnc3c2CCc2c(-c4cn(C)nc4C(F)(F)F)cc(Cn4ccnc4C)cc2-3)cc(OC)c1 [C3TD078] | 6.31e-07 | 2e-06 | 0.004 | 79 | 89 | 0.03 ± 0.002 | 316 | 63.1 | – | – | – | – |
| COc1cc(Cn2nnc3c2CCc2c-3cc(Cn3ccnc3C)cc2C2CC2)ccc1F [C3TD343] | 6.31e-06 | 5.01e-06 | 0.005 | – | – | 5.9 ± 0.3 | 378 | 64.1 | 0.027 | – | – | – |
| COc1cc(CN2CCc3c(cc(Cn4ccn(C)c4=N)cc3-c3ccc(F)cc3C)C2=O)cc(OC)c1 [C16, reference compound] | 7.94e-07 | 1.58e-06 | – | – | – | 0.03 ± 0.01 | < 9.2 | < 14.7 | 0.008 | 2e-06 | –2.5 | –2.0 |

From publication PMC13313556, “Development and characterization of triazole-based WDR5 inhibitors for the treatment of glioblastoma” (JCI Insight, 2026)
